Source: US12377069B2, “Compounds, compositions, methods of using, and methods for preparing compounds” (UNIVERSITY OF LOUISVILLE RESEARCH FOUNDATION, INC., priority 2018, dated 2025)

Assays:
C57BL/6 mice [1] = assay: DSS-induced acute colitis; format: in vivo, mouse; conditions: oral 20 mg/kg on day 4 and 6
Procedure: DSS-induced colitis: Acute experimental colitis in mice was induced by giving 3% (w/v) colitis grade DSS (MP Biomedicals) in drinking water for 7 days. Control animal received drinking water without DSS. All colitis group mice were randomly divided into three groups viz. vehicle treated (0.25% Na-CMC), UroA (20 mg/kg/day) and UAS03 (20 mg/kg/day) on the 4th and 6th day of DSS treatment. After 7 days, animals were put back on regular water for a period of 7 days. For chronic DSS colitis model, we used three cycles of 2.0% (w/v) DSS and each DSS cycle consisted or 7 days followed by 10 days of regular water and mice were treated with UroA (20 mg/kg/day) on every 4th and 6th day of DSS cycle.
Assessment of colitis severity and tissue collection: Mice were evaluated daily for change in body weight, stool consistency and rectal bleeding and score was given and combined to obtained disease activity index (MURTHY et al., (1993) “Treatment of dextran sulfate sodium-induced murine colitis by intracolonic cyclosporin” Dig Dis Sci, Vol. 38, pp. 1722-1734). After euthanasia, the colon was removed and flushed with PBS containing (1 mM PMSF and 0.2 mM sodium orthovanadate). Colon length and colon weight were measured and small parts of colon were excised for myeloperoxidase (MPO) activity and RNA isolation. Tissues for MPO and RNA extraction were snap frozen in liquid nitrogen and stored in −80° C. until further analysis. Tissue for histological examination was stored in 10% phosphate buffered saline formalin. Blood was collected and serum was separated by centrifugation at 3500×g for 15 min. Serum cytokines (IL-6, TNF-α; Biolegend) and chemokines (CXCL1; R&D Systems) levels were measured by ELISA according to manufacturer's instructions.
In vivo intestinal permeability assay: The gut barrier function was evaluated by in vivo intestinal permeability using FITC-Dextran (MW 4000; FD4, Sigma-Aldrich, USA) (FURUTA et al., (2001) “Hypoxia-inducible factor 1-dependent induction of intestinal trefoil factor protects barrier function during hypoxia” J Exp Med, Vol. 193, pp. 1027-1034). Briefly, mice were orally administered with FITC-dextran (60 mg/100 gm body weight). Mice were fasted for 4 h prior to euthanization. The FITC-dextran concentration in serum was determined using the standard curve of FITC-dextran in serum (excitation, 485 nm; emission, 525 nm; BMG LABTECH).

C57BL/6 mice [2] = assay: DSS-induced chronic colitis; format: in vivo, mouse; conditions: 4 cycles of 2% DSS; for colon weight/length ratio / expression of Cldn4 in colons / inflammation (serum IL-6, IL-10, TNF-α, colonic tissue MPO levels) / shortening of colons: 20 mg/kg/day; for DSS-induced chronic colitis: 20 mg/kg/day on 4th and 6th day of each cycle
Nrf2 = Nrf2 reporter (ARE-luciferase) assay; format: cell-based, human; conditions: HT29, 50 μM, 24 h
Procedure: Nrf2-Reporter assay: ARE-luciferase plasmid vector was obtained from Cayman Chemicals. HT29 cells were transfected at 50% confluency using lipofectamine 3000 reagent (ThermoFisher Scientific). Briefly, cells were seeded in 6-well plates (0.5×10^6 cells) and grown for 24 h. The transfection complex containing 1 μg of plasmid DNA and transfection reagent was added to each well in absence of FBS. After 6 hr medium containing 10% FBS was added and cells were incubated for another 16-18 hr. These cells were treated with vehicle (0.01% DMSO) or UroA (50 μM) or UAS03 (50 μM) or sulforaphane (10 μM) for 24 h. After incubation with inducers, cells were lysed and firefly luciferase activities (luminiscence) were measured with Luciferase Assay System (Promega) using multiwell plate luminometer (BMG, LABTECH).

Row | SMILES | 3% DSS induced acute colitis (C57BL/6 mice [1]) | DAI scores during disease progression (C57BL/6 mice [1]) | colon weight/length ratio (C57BL/6 mice [2]) | expression of Cldn4 in colons (C57BL/6 mice [2]) | inflammation (serum IL-6, IL-10, TNF-α, colonic tissue MPO levels) (C57BL/6 mice [2]) | shortening of colons (C57BL/6 mice [2]) | DSS-induced chronic colitis (C57BL/6 mice [2]) | ARE-luciferase luminescence (Nrf2)
1 | Oc1ccc2c(c1)COc1cc(O)ccc1-2 [UAS03, 6H-benzo[c]chromene-3,8-diol] | protected from 3% DSS induced acute colitis | overall decreased DAI scores | increased colon weight/length ratio | enhanced the expression of Cldn4 | reduced inflammation | reduced shortening of colons | protected from DSS-induced colitis | enhanced luminescence
2 | O=c1oc2cc(O)ccc2c2ccc(O)cc12 [UroA, 3,8-dihydroxy-6H-dibenzo[b,d]pyran-6-one] | protected from 3% DSS induced acute colitis | overall decreased DAI scores | increased colon weight/length ratio | enhanced the expression of Cldn4 | reduced inflammation | reduced shortening of colons | protected from DSS-induced colitis | enhanced luminescence
